Data set [1] relates to Suptl cells (T-lymphocyte cell line). Description: Cytotoxicity assay (MTT). Format: cell-based. As to conditions: 50% cytotoxic concentration, 72 hours, MTT; read-out: CC50. Here is the method:
The T-lymphocyte cell line (Suptl) was cultured in an RPMI 1640 medium (GIBICO). The cultures were supplemented with 10% Fetal Bovine Serum (SFB; HyClone, Logan, Utah, USA), 100 U/mL of penicillin and […] of streptomycin, and incubated at 37° C., in an atmosphere of 5% CO2. Virus stocks were prepared using the methodology described by Souza and Denizot (SOUZA, T. M. L; RODRIGUES, D. Q.; […], V. F.; MARQUES, I. P.; DE SOUZA, M. C. B. V.; […], I. C. P. P.; BOU-HABIB, D. C; FONTES, C. F. L. Characterization of HIV-1 enzyme reverse transcriptase inhibition by the compound 6-chloro-1.4-dihydro-4-oxo-1-(β-D-ribofuranosyl) quinoline-3-carboxylic acid through kinetic and in silico studies. Current HIV Research, v. 7, No 3, page 327-335, 2009. DENIZOT, F.; LANG, R. Rapid colorimetric assay for cell growth and survival. Modifications to the tetrazolium dye procedure giving improved sensitivity and reliability. The Journal of Immunological Methods, v. 89, No 2, page 271-277, 1986).
. They were then run through an MTT assay (3-(4,5-dimethylazol-2-yl)-2.5-diphenyl tetrazolium bromide) in order to analyze cell induction infeasibility. MTT is a colorimetric method that measures mitochondrial dehydrogenase activity based on the ability of live cells to reduce 3-(4,5-methylazol-2-yl)-2.5-diphenyl tetrazolium bromide salt in the product. A […] solution of 3-(4,5-dimethylthiazol-2-yl)-2.5-diphenyl tetrazolium bromide (1 mg/ml) (MTT, Sigma) was thus added to the cells, kept in Dulbecco's Modified Eagle's medium (DMEM) without serum. The MTT was removed after three hours and, after adding […] of isopropanol acid (0.04N HCl in isopropanol), the optical density (OD) was determined using a wavelength range of 570 to 690 nm, according to KUO et al (KUO, Y. C; CHEN, C. C; TSA, W. J.; HO, Y. H. Regulation of type 1 herpes simplex virus replication in vero cells by Psychotriaserpens: relationship to gene expression, DNA replication, and protein synthesis. Antiviral Research, v. 51, No 2, pages 95 to 109, 2001). The dye coloring has different optical densities, depending on mitochondrial metabolism after treating cells with different concentrations of the new derivatives or the absence thereof. The 50% cytotoxic concentration (CC50) was calculated through linear regression analysis from the dose-response curve obtained from experimental data.

The target in data set [2] is T1, recombinant HIV-1 reverse transcriptase (RTHXB2) (Human immunodeficiency virus type 1 group M subtype B, UniProt P04585).
T1 construct: The enzyme is derived from a polyprotein encoded by the virus, processed by the viral protease
Description: Reverse transcriptase inhibition activity (RDDP, [3H]dTTP incorporation). As to conditions: for IC50: 50% inhibitory concentration, mean of three independent experiments, read-out: CI50 (the source's name); for IS: CC50 / CI50. Format: biochemical. The procedure:
Reverse Transcriptase Inhibition Activity
The RDDP activity was determined in 50 mM Tris HCl (pH 7.8), 6 mM MgCl2, 1 mM dithiothreitol, 50 mM KCl, 5 μM dTTP, […] poly (rA) oligo (dT) template primer (Pharmacia, Piscataway, N.J., USA) and 3 U of enzyme (one unit is the enzyme concentration incorporating dTTP […] per minute per mg of enzyme at 37° C. under standard conditions). The reaction isotope dilutions were prepared at 2 μCi of [3H] dTTP (49 Ci/mmol)/2,7μ dTTP. The reaction was initiated at 37° C., incubated for 30 minutes and halted with 0.5M EDTA. The precipitate was collected on Whatman 81 filter paper and washed with 0.1 M sodium phosphate. The incorporated nucleotides were measured by liquid scintillation. The 50% inhibitory concentration (Ciso) was determined by linear regression analysis of the dose-response curve obtained from experimental data. The polymerization reaction was conducted in the presence and absence of test substances, as well as the presence and absence of standards.
All tests were conducted on three separate occasions. At least three independent experiments were performed and triplicates were run for each concentration.

Regarding `CCOP(=O)(Cn1cc(CN2C(=O)C(F)(F)c3cc(C)ccc32)nn1)OCC` [IIIe, diethyl ((4-((3,3-difluor-5-methyl-2-oxoindolin-1-yl)methyl)-1H-1,2,3-triazole-1-yl)methyl) phosphonate], the CC50 (commonly the concentration at which the toxic effect on the cells reaches its halfway point) in data set [1] was over 100 µM. The IC50 in data set [2] was 2.2 µM.
`Cc1cn(C2CC(n3cc(CN4C(=O)C(F)(F)c5ccccc54)nn3)C(CO)O2)c(=O)[nH]c1=O` (stereo not shown) [IIIa, 1-(4-(4-((3,3-difluor-2-oxoindolin-1-yl)methyl)-1H-1,2,3-triazole-1-yl)-5-(hydroxymethyl)tetrahydrofuran-2-yl)-5-methylpyrimidine-2.4(1H,3H)-dione]: the CC50 in data set [1] was 835 µM. Besides, in data set [2], the “RT enzyme inhibition activity compared with benchmarks (in words)” value was “more active than the nevirapine and tenofovir benchmarks”; the IC50 was found to be 0.6 µM; the IS came to 1392.
For `CCOP(=O)(Cn1cc(CN2C(=O)C(F)(F)c3cc(Cl)ccc32)nn1)OCC` [IIIf, diethyl ((4-((5-chloro-3.3-difluor-2-oxoindolin-1-yl)methyl)-1H-1,2,3-triazole-1-yl)methyl) phosphonate], the CC50 in data set [1] came to 1900 µM. In data set [2], the “RT enzyme inhibition activity compared with benchmarks (in words)” value is “more active than the nevirapine and tenofovir benchmarks”; the IC50 was found to be 0.9 µM; the IS is 2106.

Values taken from US10538515B2, “Isatin-derived compounds, use of the compounds for the treatment of AIDS and method of treatment using these compounds” (FUNDAÇÄO OSWALDO CRUZ, priority 2016, dated 2020).
